Target: T1, AlgL (NHis6-AlgL^28–362) (Pseudomonas aeruginosa, UniProt Q06749)
T1 construct: residues 28-362, signal peptide removed, N-terminal His6 tag (pET28b), expressed in E. coli; one molecule in the asymmetric unit
Assay: X-ray crystal structure, […] Å
Type: binding
Conditions: cocrystallized with 8 mM mannuronate trisaccharide (ManA3); only one sugar monomer seen in density, subsite +1 of active site

T1 sequence (Q06749 28-362): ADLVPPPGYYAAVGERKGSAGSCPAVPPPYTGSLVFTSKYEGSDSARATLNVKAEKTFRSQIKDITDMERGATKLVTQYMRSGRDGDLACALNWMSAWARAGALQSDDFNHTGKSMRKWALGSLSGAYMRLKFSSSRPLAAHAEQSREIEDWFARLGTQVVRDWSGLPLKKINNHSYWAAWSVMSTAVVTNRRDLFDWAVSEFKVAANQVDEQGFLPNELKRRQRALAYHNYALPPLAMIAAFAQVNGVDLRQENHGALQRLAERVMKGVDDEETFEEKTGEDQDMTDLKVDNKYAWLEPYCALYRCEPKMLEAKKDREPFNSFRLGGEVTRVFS

Structure (SMILES): O=C(O)[C@H]1OC(O)[C@@H](O)[C@@H](O)[C@@H]1O (stereo partly shown) [ManA, mannuronate]
- X-ray crystal structure, 1.64 Å: we were only able to detect electron density for a sugar monomer

Reference: PMC8829089, “The Pseudomonas aeruginosa homeostasis enzyme AlgL clears the periplasmic space of accumulated alginate during polymer biosynthesis” (The Journal of Biological Chemistry, 2022)
